The record followed here is ChEMBL document CHEMBL4706696, “3-Functionalised benzenesulphonamide based 1,3,4-oxadiazoles as selective carbonic anhydrase XIII inhibitors: Design, synthesis and biological evaluation” (Bioorg Med Chem Lett, 2021).

One assay addresses Carbonic anhydrase 9 (Homo sapiens, UniProt Q16790). Nature of the assay: Inhibition of recombinant human carbonic anhydrase 9 by stopped flow CO2 hydrase assay.
For a further assay, the target named is Carbonic anhydrase 1 (Homo sapiens, UniProt P00915). Nature of the assay: Inhibition of recombinant human carbonic anhydrase 1 by stopped flow CO2 hydrase assay.
The next assay deals with Carbonic anhydrase 2 (Homo sapiens, UniProt P00918). Nature of the assay: Inhibition of recombinant human carbonic anhydrase 2 by stopped flow CO2 hydrase assay.
For a further assay, the target named is Carbonic anhydrase 13 (Homo sapiens, UniProt Q8N1Q1). Nature of the assay: Inhibition of recombinant human carbonic anhydrase 13 by stopped flow CO2 hydrase assay.
Chain of Carbonic anhydrase 13 (Q8N1Q1 whole entry): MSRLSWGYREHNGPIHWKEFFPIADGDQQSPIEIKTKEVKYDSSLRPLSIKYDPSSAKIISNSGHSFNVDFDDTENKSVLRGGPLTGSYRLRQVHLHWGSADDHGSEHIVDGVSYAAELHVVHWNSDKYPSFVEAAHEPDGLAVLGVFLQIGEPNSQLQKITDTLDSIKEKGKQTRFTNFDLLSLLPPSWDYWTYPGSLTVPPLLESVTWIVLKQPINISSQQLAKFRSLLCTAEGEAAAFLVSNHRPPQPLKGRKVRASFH

Chain of Carbonic anhydrase 1 (P00915 whole entry): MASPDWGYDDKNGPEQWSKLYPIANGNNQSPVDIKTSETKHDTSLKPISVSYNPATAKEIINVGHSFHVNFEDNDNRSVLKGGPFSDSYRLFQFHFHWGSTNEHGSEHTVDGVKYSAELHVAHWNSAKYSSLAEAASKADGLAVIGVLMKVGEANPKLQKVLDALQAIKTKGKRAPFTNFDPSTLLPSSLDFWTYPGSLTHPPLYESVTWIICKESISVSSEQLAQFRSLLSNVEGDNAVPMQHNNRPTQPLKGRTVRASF

Take `NS(=O)(=O)c1cccc(-c2nnc(-c3ccc(Cl)cc3)o2)c1`: at Carbonic anhydrase 9, the Ki (in general, a measure of affinity in units of concentration, obtained from inhibition or displacement) stood at 0.0545 µM.
Turning to `Cc1ccc(-c2nnc(-c3ccccc3)o2)cc1S(N)(=O)=O`, the Ki on Carbonic anhydrase 1, on Carbonic anhydrase 2, at Carbonic anhydrase 9 and at Carbonic anhydrase 13 was above 10 µM throughout.
Turning to `COc1ccc(-c2nnc(-c3ccc(C)c(S(N)(=O)=O)c3)o2)c(OC)c1`, the inhibition constant Ki at Carbonic anhydrase 1, at Carbonic anhydrase 2, at Carbonic anhydrase 9 and at Carbonic anhydrase 13 was above 10 µM throughout.
Take `COc1ccc(-c2nnc(-c3ccccc3)o2)cc1S(N)(=O)=O`: the inhibitory constant (Ki) on Carbonic anhydrase 1, on Carbonic anhydrase 2, on Carbonic anhydrase 9 and on Carbonic anhydrase 13 was above 10 µM throughout.
`Cc1ccc(-c2nnc(-c3ccc(Cl)cc3Cl)o2)cc1S(N)(=O)=O`: the inhibition constant (Ki) on Carbonic anhydrase 1, at Carbonic anhydrase 2, on Carbonic anhydrase 9 and on Carbonic anhydrase 13 was above 10 µM each time.
Consider `COc1cc(-c2nnc(-c3cccc(S(N)(=O)=O)c3)o2)cc(OC)c1OC`, for which the Ki on Carbonic anhydrase 9 amounted to 0.0683 µM.
On to `COc1ccc(OC)c(-c2nnc(-c3cccc(S(N)(=O)=O)c3)o2)c1`, for which, at Carbonic anhydrase 9, the Ki stood at 0.0768 µM.
As for `Cc1ccc(-c2nnc(-c3ccc(C#N)cc3)o2)cc1S(N)(=O)=O`, the Ki at Carbonic anhydrase 1, at Carbonic anhydrase 2, on Carbonic anhydrase 9 and at Carbonic anhydrase 13 was above 10 µM in each case.
With `NS(=O)(=O)c1cccc(-c2nnc(-c3ccc(Cl)cc3Cl)o2)c1`, the Ki on Carbonic anhydrase 9 came out at 0.0763 µM.
On to `N#Cc1ccc(-c2nnc(-c3cccc(S(N)(=O)=O)c3)o2)cc1`, for which the inhibitory constant (Ki) at Carbonic anhydrase 9 was found to be 0.0763 µM.
On the same count and under the same terms, for `NS(=O)(=O)c1cccc(-c2nnc(-c3ccccc3)o2)c1` the value was 0.108 µM.
As to `COc1ccc(-c2nnc(-c3cccc([N+](=O)[O-])c3)o2)cc1S(N)(=O)=O`, the Ki at Carbonic anhydrase 1, on Carbonic anhydrase 2, at Carbonic anhydrase 9 and on Carbonic anhydrase 13 was above 10 µM throughout.
`Cc1ccc(-c2nnc(-c3ccc(Cl)cc3)o2)cc1S(N)(=O)=O`: the Ki on Carbonic anhydrase 1, at Carbonic anhydrase 2, at Carbonic anhydrase 9 and on Carbonic anhydrase 13 was above 10 µM in each case.
Regarding `NS(=O)(=O)c1cccc(-c2nnc(-c3cccc([N+](=O)[O-])c3)o2)c1`, the Ki on Carbonic anhydrase 9 was 0.044 µM.
With `Cc1ccc(-c2nnc(-c3cccc([N+](=O)[O-])c3)o2)cc1S(N)(=O)=O`, the Ki at Carbonic anhydrase 1, at Carbonic anhydrase 2, on Carbonic anhydrase 9 and on Carbonic anhydrase 13 was above 10 µM in each case.
`NS(=O)(=O)c1cccc(-c2nnc(-c3ccc([N+](=O)[O-])cc3)o2)c1`: the Ki at Carbonic anhydrase 9 came to 0.0571 µM.
Regarding `NS(=O)(=O)c1cccc(-c2nnc(-c3cccs3)o2)c1`, at Carbonic anhydrase 9, the Ki is 0.0853 µM.
Regarding `COc1ccc(-c2nnc(-c3ccc(OC)c(S(N)(=O)=O)c3)o2)c(OC)c1`, the Ki at Carbonic anhydrase 1, at Carbonic anhydrase 2, on Carbonic anhydrase 9 and at Carbonic anhydrase 13 was above 10 µM in each case.
Take `COc1ccc(-c2nnc(-c3cccc(S(N)(=O)=O)c3)o2)c(OC)c1`: the Ki on Carbonic anhydrase 9 was found to be 0.0822 µM.
